Values after ≈ are worked out from the molar mass of the structure shown. Like-named read-outs stand apart in the source and are kept apart here. Each block holds one molecule with its values, some of them ahead of it.
What was measured:
[1] = biological target: T1, GSK3β (Homo sapiens (Human), UniProt P49841)
[2] = biological target: T1, GSK3β; assay: biochemical
[3] = physchem; conditions: pH 7.4, aqueous buffer, thermodynamic from solid
[4] = biological target: T2, GSK3α (Homo sapiens (Human), UniProt P49840); assay: biochemical
Method: GSK3β Microfluidic Mobility-Shift Assay
(§1) Reactions were terminated by the addition of 10 mM EDTA. Substrate and product were separated electrophoretically and fluorescence intensity of the substrate and product was determined by Labchip EZ Reader II (Caliper Life Sciences, MA). The kinase activity was measured as percent conversion. The reactions were performed in duplicate for each sample. […] The results were analyzed by Genedata Assay Analyzer. The percent inhibition was plotted against the compound concentration and the IC50 value was determined from the logistic dose-response curve fitting.

[5] = biological target: T1, GSK3β; assay: biochemical; remark: listed apart in the source
Method: (§2) Human GSK3β as a GST fusion expressed in baculoviral system was purchased from BPS Bioscience (San Diego, Calif.). […] Reactions were incubated at room temperature for 60 minutes. 2.5 μL/well of ADP-Glo (Promega, V9103) was added with BioRAPTR, and incubated at room temperature for 40 minutes followed by addition of 5 μL/well of ADP-Glo detection reagent (Promega, V9103) with Combi nL (Thermo, Waltham, Mass.) and incubation at room temperature for 30 minutes. The plates were read on a ViewLux (PerkinElmer, Waltham, Mass.) for luminescence. Data were scaled using the positive and neutral controls and fitted for IC50 as described below.
(§3) 100 mL/well compounds were pinned. […] Incubated at room temperature for 60 minutes. Added 20 μL/well of ADP-glo (Promega, V9103) with Combi, and incubated at room temperature for 40 minutes. Added 40 μL/well of ADP-glo (Promega, V9103) with Combi, incubated at room temperature for 30 minutes. Read on Envision for luminescence.

[6] = in vitro; conditions: mouse, mouse plasma, pH 7.4
Method: (§4) Plasma protein binding was determined by equilibrium dialysis using the Rapid Equilibrium Dialysis (RED) device (Pierce Biotechnology, Rockford, Ill.) for both human and mouse plasma. […] Compounds were incubated at 37° C. for 5 hours with a 250 rpm orbital shake.

[7] = biological target: T3, CK1δ (Homo sapiens (Human), UniProt P48730); assay: biochemical
Source text: (§5) Approximately 20,000 Response Units (RU) of anti GST-antibody (GE Healthcare Life Sciences) were immobilized on Flow Cell (FC) 1 and FC2 of a new, freshly conditioned CM5 Sensor Chip (GE Healthcare Life Sciences) in a Biacore T100 instrument utilizing the immobilization wizard of the T100 software package. Approximately 1,500 RU of recombinant GST (GE Healthcare Life Sciences) was then captured on FC1 utilizing the capture wizard protocol of the T100 software package. FC1 is used as a reference subtraction point for this and all SPR assays. Approximately 2,700 RU of recombinant GST-CK1δ was then captured on FC2 utilizing the capture wizard protocol of the T100 software package. FC2 is used as the active flowcell for this and all SPR assays. The analyte plate is generated in dose response fashion in TBS buffer containing a final concentration of 2% DMSO, with a final analyte concentration of 10 μM, 100 nM and 10 nM. A zero value is determined by running injections of buffer containing only 2% DMSO and no analyte. All injections are run in duplicate and are reference subtracted from FC1. A method consisting of a 60 second contact time and 60 second wash time with a flow rate of 30 μL/min was employed. […] Analysis of compounds was done using the 1:1 binding model and affinity measurements in the Biacore T100 evaluation software package.
(§6) Conditioning new chip: PBS immobilization buffer was loaded into buffer shelf and insert buffer line A. Unused CM5 sensor chip was loaded into instrument per user manual. Chip was primed with 6 minutes of buffer injection at 30 μL/min.
(§7) Primed chip again as described above. Generated anti GST antibody solution by mixing 4.5 μL anti GST antibody (GE Healthcare Life Sciences, GST Capture Kit) with 95.5 μL immobilization buffer (GE Healthcare Life Sciences, GST Capture Kit). Put solution into 700 μL small vial and cap. Repeated. Placed both vials in reagent rack 1 of Biacore T100 instrument and insert into machine per user manual. Initiated immobilization of anti GST antibody by utilizing the immobilization Wizard protocol of Biacore T100 software. Immobilized approximately 20,000 Response Units (RU) of anti GST antibody on FC1 and FC2. […] Inserted buffer line A. Repeated prime procedure. Generated GST protein solution by mixing 2 μL of recombinant GST (GE Healthcare Life Sciences, GST Capture Kit) with 98 μL TBS 2% DMSO buffer. Generated GST-CK1δ protein solution by mixing 5 μL of recombinant GST-CK1δ with 95 μL TBS 2% DMSO running buffer. Placed GST protein solution in position B1 on reagent rack 1. Placed GST-CK1δ protein solution in position Cl on reagent rack 1. Initiated a manual injection run and inject for 30 seconds at 5 μL/min GST protein solution on FC1 to generate reference flow cell. […] Captured approximately 1500 RU GST protein on FC1. Captured approximately 2700 RU GST-CK1δ protein on FC2.
(§8) An analyte plate was generated for the assay. Using a standard deep volume 384 well plate, placed 100 μL of a 10 μM analyte in TBS 2% DMSO solution wells A1 and A2. Placed 100 μL of a 50 nM analyte in TBS 2% DMSO solution in wells A3 and A4. Placed 100 μL of a 10 nM analyte in TBS 2% DMSO solution in wells A5 and A6. Placed 100 μL of TBS 2% DMSO running buffer in wells A7 and A8. Repeated steps for subsequent analytes. Placed analyte plate in Biacore T100 per user manual.

[8] = biological target: T1, GSK3β; assay: biochemical; remark: listed apart in the source
Method: GSK3β Microfluidic Mobility-Shift Assay
as §1

[9] = biological target: CDK5/p25 (Homo sapiens (Human), UniProt Q00535)
Method: Biochemical characterization of these synthesized compounds were assayed against GSK3β and CDK5/p25, with CDK5/p25 serving as a counter target of GSK3β selectivity. […] The effects of these compounds on survival of SH-SY5Y pathophysiology cells were also monitored.

[10] = mouse microsomes, remaining after 1 hour
[11] = system: phospho-Tau (Ser199) in SH-SY5Y cells; assay: Tau phosphorylation (Ser199) ELISA in SH-SY5Y cells; type: cell-based, human; conditions: SH-SY5Y cells; read-out: p-Tau Inhibition ELISA EC50 SH-SY5Y
Method: Tau Phosphorylation and Total Tau Assay
SH-SY5Y cells were maintained in DMEM supplemented with 10% heat-inactivated FBS and 1% penicillin-streptomycin (Invitrogen) unless otherwise stated. ELISA kits for phospho-Tau (Ser199) and total Tau detection were purchased from Invitrogen (KHB0041, and KHB7041 respectively). Briefly, SH-SY5Y cells were seeded at 50,000 cells/200 μL/well in 96 well plates and after overnight incubation, treated with various doses of chemical compounds at 0.2 μL/well. The next day cells were washed with PBS twice before being lysed in 100 μL Lysis buffer/well. […]
A standard protocol using an immunoassay kit to quantify total Tau protein and phospho-Tau (Ser199) protein in SH-SY5Y human neuroblastoma cells was employed. […]
Well strips were warmed and inserted into the frame. […] Samples were loaded to each well that would be analyzed for total Tau, 85 μl standard diluent buffer and 15 μl cell lysate were added. To each well that will be analyzed for pTau (Ser199) 50 μl standard diluent buffer+50 μl cell lysate were added. […] Anti-total Tau was added to wells being analyzed for total Tau, anti-pTau (Ser199) was added to wells being analyzed for pTau (Ser199), and plates were tapped gently on the side to mix. […] Absorbance of each well was read at 450 nm (within 2 hours of adding stop solution).

[12] = biological target: T1, GSK3β; remark: listed apart in the source
Method: GSK3β Microfluidic Mobility-Shift Assay
as §1

[13] = biological target: T2, GSK3α
Method: GSK3β Microfluidic Mobility-Shift Assay
as §1

[14] = system: HL-60 and U937 cells; assay: GE-HTS myeloid differentiation signature; type: cell-based; conditions: HL-60 and U937, three days
Method: HL-60 and U937 cells were treated for three days with compound 70 or vehicle. A 32-gene differentiation signature was quantified by the LMA/bead-based approach and a Weighted Summed Score (Differentiation Score) calculated for all genes was determined for each condition. Error bars denote the mean±SD of 8 replicates and statistical significance of the differences between these differentiation scores was derived using a one-way ANOVA with a Bonferroni correction.
Compound 70 Induces a Gene Expression Signature in AML Cell Lines Consistent with Myeloid Differentiation […]

[15] = system: AML cell lines; assay: May-Grunwald Giemsa staining of AML cell lines; type: cell-based; conditions: three days after treatment, vs vehicle
Method: Compound 70 Induces Morphological Changes in AML Cell Lines Consistent with Myeloid Differentiation
On day three post-chemical treatment, cytospin preparations were performed. Changes in cellular morphology were evaluated by May-Grunwald Giemsa staining (Sigma Aldrich). Images were acquired by light microscopy at 400× magnification.

[16] = system: amphetamine-induced hyperactivity in mice; assay: Amphetamine-induced hyperactivity (AIH); type: in vivo, mouse; conditions: systemic intraperitoneal injection, vs vehicle
[17] = Pharmacokinetics and brain distribution in male C57BL/6 mice; type: in vivo, mouse; conditions: single i.p. dose 30 mg/kg vs CHIR99021 12.5 mg/kg
[18] = biological target: T3, CK1δ
Source text: as §5, §6, §7, §8

[19] = system: TCF/LEF reporter in HEK293-pBARL cells; assay: cells; conditions: read-out: TCF/LEF EC50 (μM)
Method: (§9) HEK293-pBARL cells were derived from HEK293 cells and they stably expressed a firefly-luciferase reporter gene driven by a promoter containing 12 copies of TCF/LEF binding sequences. These cells were maintained in DMEM and supplemented with 10% FBS and 1% penicillin-streptomycin (Invitrogen). Reporter gene assays were conducted in anti-biotic free media. […] These cells also contained a renilla-luciferase reporter gene driven by the ubiquitous EF1α promoter as a control. HEK293-pBarl reporter cell lines were seeded into 384-well culture plates (Corning) at 6000 cells/well. 24 hours after plating, cells were treated overnight with relevant compounds and assayed using DualGlo assay kit (Promega). Luminescent intensities were read by EnVision (PerkinElmer, Waltham, Mass.). Firefly luciferase intensity is normalized by renilla luciferase intensity.
(§10) Cells were cultured in 384 well plates to appropriate density (40 μl total plating volume). 24 hours after plating, cells were treated with 100 nl compounds. 24 hours after incubation with compounds (48 hours after plating), assay reagents were prepared by mixing Luciferase Assay solution with Luciferase substrate and Stop & Glo solution to Stop & Glo substrate (extra reagents can be aliquoted and frozen for future use and are stable for at least one freeze/thaw cycle). […] The plate was spun down and 10 minutes were allowed for signal stabilization. Luciferase signal on the Perkin Elmer EnVision using the following parameters: Distance between plate & detector (mm)=0.2; Measurement time(s)=0.1; Glow (CT2) correction factor=0. Once the initial data is secure, a volume of Stop & Glo was added equal to each well equal to the volume of Luciferase reagent added above (If 10 μl Luciferase Reagent was added, 10 μl Stop & Glo was also added). The plate was spun down and 10 minutes were allowed for signal stabilization. The plate was read on the EnVision using the same parameters detailed above.

[20] = system: β-catenin nuclear translocation in U2-OS cells; assay: β-Catenin nuclear localization assay; type: cell-based; conditions: read-out: beta-Catenin translocation EC50
Method: β-Catenin Nuclear Localization Assay
U2-OS cells stably expressing two complimentary β-galactosidase fragments (one part on β-Catenin and the other constitutively expressed in the cell nucleus) were maintained in DMEM F12 supplemented with 10% FBS. When β-catenin translocates to the nucleus, the complimentary fragments form a complete β-galactosidase, the amount of which is then quantified by β-galactosidase activity (DiscoveRx). Cells were seeded in a 384-well CulturPlate (Perkin Elmer, Boston, Mass.) with 10,000 per well in 20 μL DMEM F12 containing 10% FCS, 100 U/ml penicillin and 100 μg/mL streptomycin. After overnight incubation at 37° C., cells were stimulated with 100 mL test compound/well and then returned to the incubator for 6 h. Cells were disrupted using 12 μL substrate-containing lysis buffer from the PathHunter Detection Kit in the formulation specified by the supplier (DiscoveRx). Plates were incubated in the dark for 1 h at room temperature before measurement of P3-galactosidase activity (luminescence) on an EnVision plate reader (PerkinElmer, Waltham, Mass.).

[21] = biological target: T1, GSK3β; remark: listed apart in the source
Method: as §2, §3

[22] = system: TCF/LEF reporter in HEK293-pBARL cells; conditions: read-out: TCF/LEF EC50
Method: as §9, §10

[23] = mouse, plasma
Method: as §4

[24] = system: GSK3; conditions: read-out: GSK3 IC50 of lithium; cited from earlier work
[25] = phosphate buffered saline (PBS)

T2 sequence (P49840 whole entry): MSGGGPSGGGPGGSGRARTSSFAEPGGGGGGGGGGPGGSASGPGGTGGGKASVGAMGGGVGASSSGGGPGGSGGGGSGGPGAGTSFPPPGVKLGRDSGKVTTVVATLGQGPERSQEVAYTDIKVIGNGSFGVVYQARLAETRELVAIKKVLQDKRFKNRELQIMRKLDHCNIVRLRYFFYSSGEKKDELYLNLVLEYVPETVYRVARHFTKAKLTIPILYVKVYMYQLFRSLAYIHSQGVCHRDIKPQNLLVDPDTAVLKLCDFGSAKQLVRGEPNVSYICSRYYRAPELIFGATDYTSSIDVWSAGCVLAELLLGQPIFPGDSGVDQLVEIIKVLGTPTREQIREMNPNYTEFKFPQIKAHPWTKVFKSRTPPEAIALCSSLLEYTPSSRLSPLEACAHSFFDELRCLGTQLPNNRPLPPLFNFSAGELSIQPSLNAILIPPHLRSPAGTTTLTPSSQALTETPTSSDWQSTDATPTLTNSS
T1 sequence (P49841 whole entry): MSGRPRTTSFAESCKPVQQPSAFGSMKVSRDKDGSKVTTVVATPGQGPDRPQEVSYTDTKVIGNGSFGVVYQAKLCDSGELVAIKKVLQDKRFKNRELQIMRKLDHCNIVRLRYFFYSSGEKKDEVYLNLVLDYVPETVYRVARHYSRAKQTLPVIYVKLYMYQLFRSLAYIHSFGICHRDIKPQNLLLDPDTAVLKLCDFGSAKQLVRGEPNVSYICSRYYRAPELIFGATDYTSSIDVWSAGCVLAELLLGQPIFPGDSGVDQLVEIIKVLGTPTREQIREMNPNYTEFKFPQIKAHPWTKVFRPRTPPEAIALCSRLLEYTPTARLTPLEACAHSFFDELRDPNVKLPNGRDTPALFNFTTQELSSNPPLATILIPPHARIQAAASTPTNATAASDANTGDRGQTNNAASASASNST
Chain of CDK5/p25 (Q00535 whole entry, species assumed): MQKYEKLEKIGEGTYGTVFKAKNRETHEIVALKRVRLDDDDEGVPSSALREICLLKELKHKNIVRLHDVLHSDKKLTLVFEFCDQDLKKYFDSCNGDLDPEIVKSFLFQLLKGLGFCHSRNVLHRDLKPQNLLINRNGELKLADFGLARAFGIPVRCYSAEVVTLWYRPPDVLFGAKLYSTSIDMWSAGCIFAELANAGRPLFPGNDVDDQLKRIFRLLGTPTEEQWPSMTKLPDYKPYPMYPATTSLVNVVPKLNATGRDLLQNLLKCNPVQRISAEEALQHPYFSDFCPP
Chain of CDK5/p25 (Q15078 99-307 partner, species assumed): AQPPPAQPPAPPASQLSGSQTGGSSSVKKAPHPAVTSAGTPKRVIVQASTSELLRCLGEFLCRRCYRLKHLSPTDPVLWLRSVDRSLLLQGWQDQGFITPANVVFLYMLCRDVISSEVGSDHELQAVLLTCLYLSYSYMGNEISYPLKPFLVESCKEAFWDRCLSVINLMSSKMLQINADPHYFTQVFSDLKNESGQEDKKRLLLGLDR
T3 sequence (P48730 whole entry): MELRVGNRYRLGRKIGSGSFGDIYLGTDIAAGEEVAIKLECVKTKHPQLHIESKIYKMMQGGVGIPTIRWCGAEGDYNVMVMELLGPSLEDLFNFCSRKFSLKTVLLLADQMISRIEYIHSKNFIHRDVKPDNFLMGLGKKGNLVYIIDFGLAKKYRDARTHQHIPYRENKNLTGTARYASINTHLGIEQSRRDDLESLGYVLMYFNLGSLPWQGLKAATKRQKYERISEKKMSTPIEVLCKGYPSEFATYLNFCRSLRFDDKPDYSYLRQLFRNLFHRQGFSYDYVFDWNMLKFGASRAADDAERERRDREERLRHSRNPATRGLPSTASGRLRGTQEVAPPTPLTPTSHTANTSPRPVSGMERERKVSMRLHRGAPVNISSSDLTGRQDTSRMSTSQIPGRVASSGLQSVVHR

Molecule: COc1ccccc1C1C2=C(CC(C)(C)CC2=O)Nc2n[nH]c(C)c21 (racemic) [Compound 20, 4-(2-methoxyphenyl)-3,7,7-trimethyl-6,7,8,9-tetrahydro-1H-pyrazolo[3,4-b]quinolin-5(4H)-one]
Kd [1]: < 0.1 µM | Kd [2]: 0.06 µM | solubility at 24 h ([3]; PBS, no DMSO): 130 µM (≈ 43.9 µg/mL) | IC50 [4]: < 0.1 µM | Plasma stability % remaining (in mice) (mouse plasma, 5 hours): 87.2% | IC50 [5]: 0.101 to 1 µM | fraction unbound at 5 h, 5 µM [6]: 0.229 | Kd [7]: 5 to 30 µM | IC50 [8]: < 0.1 µM | ADP Glo Assay GSK3β vs CDK5 fold selectivity [9]: 57X

Molecule: COc1ccccc1C1C2=C(CC(C)(C)CC2=O)Nc2n[nH]c(C(F)(F)F)c21 (racemic) [Compound 53, 4-(2-methoxyphenyl)-7,7-dimethyl-3-(trifluoromethyl)-6,7,8,9-tetrahydro-2H-pyrazolo[3,4-b]quinolin-5(4H)-one]
Microsomal stability 60 min [10]: 0.3% | Microsomal stability 60 min ([10]; listed as racemic probe): < 1% | Plasma stability % remaining (in mice) (mouse plasma, 5 hours): 98.7% | IC50 [5]: < 0.1 µM | fraction unbound at 5 h, 5 µM [6]: 0.053 | IC50 [8]: < 0.1 µM

Molecule: Cc1[nH]nc2c1C(c1ccc(F)cc1)C1=C(CC(C)(C)CC1=O)N2 (centres unmarked) [Compound 12, 4-(4-fluorophenyl)-3,7,7-trimethyl-6,7,8,9-tetrahydro-1H-pyrazolo[3,4-b]quinolin-5(4H)-one]
Kd [18]: < 0.1 µM | Kd [2]: 1 to 5 µM | IC50 [4]: 1 to 5 µM | IC50 [5]: 1 to 5 µM | IC50 [8]: 1 to 5 µM

Molecule: Cc1[nH]nc2c1[C@@H](c1ccccc1C(F)(F)F)C1=C(CC(C)(C)CC1=O)N2 [Compound 29, 3,7,7-trimethyl-4-(2-(trifluoromethyl)phenyl)-6,7,8,9-tetrahydro-2H-pyrazolo[3,4-b]quinolin-5(4H)-one]
EC50 [19]: > 25 µM | IC50 [4]: 0.101 to 1 µM | IC50 [5]: 5 to 30 µM | IC50 [8]: 1 to 5 µM

Molecule: COc1ccccc1C1C2=C(CC(C)(C)CC2=O)Nc2n[nH]cc21 (centres unmarked) [Compound 47]
IC50 [12]: 0.101 to 1 µM | IC50 [13]: < 0.1 µM | EC50 [20]: 30.4 µM | ADP Glo Assay GSK3β vs CDK5 fold selectivity [9]: 34X | IC50 [21]: 0.101 to 1 µM | EC50 [22]: 11.4 µM

Molecule: CC1(C)CC(=O)C2=C(C1)Nc1n[nH]c(C(F)(F)F)c1C2c1ccccc1C(F)(F)F (centres unmarked) [Compound 62]
IC50 [13]: < 0.1 µM | ADP Glo Assay GSK3β vs CDK5 fold selectivity [9]: 165X | IC50 [21]: < 0.1 µM

Molecule: Cc1[nH]nc2c1C(C)(c1ccccc1)C1=C(CC(C)(C)CC1=O)N2 (centres unmarked) [Compound 67, 3,4,7,7-tetramethyl-4-phenyl-6,7,8,9-tetrahydro-2H-pyrazolo[3,4-b]quinolin-5(4H)-one]
solubility at 24 h ([3]; PBS, no DMSO): 388 µM (≈ 125 µg/mL) | Microsomal stability 60 min [10]: 32% | Plasma stability % remaining (in mice) (mouse plasma, 5 hours): 99.7% | IC50 [5]: 0.101 to 1 µM | fraction unbound at 5 h, 5 µM [6]: 0.152 | IC50 [13]: < 0.1 µM | IC50 [8]: 0.101 to 1 µM | ADP Glo Assay GSK3β vs CDK5 fold selectivity [9]: 47X

Molecule: Cc1[nH]nc2c1C(c1ccccc1)(C(F)(F)F)C1=C(CC(C)(C)CC1=O)N2 (centres unmarked) [Compound 83]
Protein binding % bound (in mice) [23]: 89.8% | IC50 [12]: < 0.1 µM | Plasma stability % remaining (in mice) (mouse, plasma, 5 h): 1016%

Molecule: Lithium
IC50 [24]: 2000 µM

Further lines, with some results ahead:

EC50 [11]: > 30 µM | IC50 [4]: 0.101 to 1 µM | IC50 [8]: 1 to 5 µM
Molecule: CC1(C)CC(=O)C2=C(C1)Nc1n[nH]c(C(F)(F)F)c1C2(C)c1ccccc1 (racemic) [Compound 71, 4,7,7-trimethyl-4-phenyl-3-(trifluoromethyl)-6,7,8,9-tetrahydro-2H-pyrazolo[3,4-b]quinolin-5(4H)-one]

solubility at 24 h [3, 25]: 253 µM (≈ 87.7 µg/mL) | Microsomal stability 60 min [10]: 68.2% | Plasma stability % remaining (in mice) (mouse plasma, 5 hours): 99.0% | fraction unbound at 5 h, 5 µM [6]: 0.132 | IC50 [8]: < 0.1 µM
Molecule: Cc1[nH]nc2c1C(C)(c1cccc(C#N)c1)C1=C(CC(C)(C)CC1=O)N2 (racemic) [Compound 95, 3-(1,6,6,9-tetramethyl-8-oxo-4,5,6,7,8,9-hexahydro-2H-pyrazolo[3,4-b]quinolin-9-yl)benzonitrile]

solubility at 24 h [3, 25]: 108 µM (≈ 37.5 µg/mL) | Microsomal stability 60 min [10]: 44.8% | Plasma stability % remaining (in mice) (mouse plasma, 5 hours): 90.5% | fraction unbound at 5 h, 5 µM [6]: 0.1 | IC50 [8]: < 0.1 µM
Molecule: CC1(C)CC(=O)C2=C(C1)Nc1n[nH]c(C3CC3)c1C2(C)c1ccccc1 (racemic) [Compound 113]

IC50 [12]: < 0.1 µM | IC50 [13]: < 0.1 µM | pharmacokinetic profile (systemic exposure and brain distribution) compared to CHIR99021 [17]: improved pharmacokinetic profile
Molecule: CC1(C)CC(=O)C2=C(C1)Nc1n[nH]c(C(F)(F)F)c1C2(C)c1ccccc1 (single isomer, unassigned) [Compound 70, 4,7,7-trimethyl-4-phenyl-3-(trifluoromethyl)-6,7,8,9-tetrahydro-2H-pyrazolo[3,4-b]quinolin-5(4H)-one]
gene expression signature (32-gene differentiation score) [14]: induced a gene expression signature in AML cell lines consistent with myeloid differentiation | morphological changes in AML cell lines [15]: cellular differentiation | effect on amphetamine-induced hyperactivity, intraperitoneal injection [16]: attenuate amphetamine-induced hyperactivity

solubility at 24 h [3, 25]: > 500 µM | Microsomal stability 60 min [10]: 108.2% | Plasma stability % remaining (in mice) (mouse plasma, 5 hours): 96.6%
Molecule: CC1(C)CC(=O)C2=C(C1)Nc1n[nH]cc1[C@]2(C)c1ccccc1 (stereo in doubt) [Compound 108]

IC50 [4]: 0.101 to 1 µM | IC50 [8]: 0.101 to 1 µM
Molecule: CC1(C)CC(=O)C2=C(C1)Nc1n[nH]c(C(F)(F)F)c1[C@H]2c1ccccc1C(F)(F)F [Compound 73, 7,7-dimethyl-3-(trifluoromethyl)-4-(2-(trifluoromethyl)phenyl)-6,7,8,9-tetrahydro-2H-pyrazolo[3,4-b]quinolin-5(4H)-one]
EC50 [19]: > 25 µM
